Test results published in patent US10160755B2 (Plexxikon Inc., priority 2015, dated 2018).

target: T1, BA/F3-FLT3-ITD + F691L cells (Homo sapiens, UniProt P36888, F691L, cells depend on it, form not given); experiment: BA/F3-FLT3-ITD + F691L cell proliferation assay (CellTiter-Glo); format: cell-based, murine; settings: BaF3 FLT3 ITD/F691L cells; read-out: Cell Activity (IC50 μM) BaF3_FLT3_ITD/F691L
T1 sequence (P36888 1-993 F691L): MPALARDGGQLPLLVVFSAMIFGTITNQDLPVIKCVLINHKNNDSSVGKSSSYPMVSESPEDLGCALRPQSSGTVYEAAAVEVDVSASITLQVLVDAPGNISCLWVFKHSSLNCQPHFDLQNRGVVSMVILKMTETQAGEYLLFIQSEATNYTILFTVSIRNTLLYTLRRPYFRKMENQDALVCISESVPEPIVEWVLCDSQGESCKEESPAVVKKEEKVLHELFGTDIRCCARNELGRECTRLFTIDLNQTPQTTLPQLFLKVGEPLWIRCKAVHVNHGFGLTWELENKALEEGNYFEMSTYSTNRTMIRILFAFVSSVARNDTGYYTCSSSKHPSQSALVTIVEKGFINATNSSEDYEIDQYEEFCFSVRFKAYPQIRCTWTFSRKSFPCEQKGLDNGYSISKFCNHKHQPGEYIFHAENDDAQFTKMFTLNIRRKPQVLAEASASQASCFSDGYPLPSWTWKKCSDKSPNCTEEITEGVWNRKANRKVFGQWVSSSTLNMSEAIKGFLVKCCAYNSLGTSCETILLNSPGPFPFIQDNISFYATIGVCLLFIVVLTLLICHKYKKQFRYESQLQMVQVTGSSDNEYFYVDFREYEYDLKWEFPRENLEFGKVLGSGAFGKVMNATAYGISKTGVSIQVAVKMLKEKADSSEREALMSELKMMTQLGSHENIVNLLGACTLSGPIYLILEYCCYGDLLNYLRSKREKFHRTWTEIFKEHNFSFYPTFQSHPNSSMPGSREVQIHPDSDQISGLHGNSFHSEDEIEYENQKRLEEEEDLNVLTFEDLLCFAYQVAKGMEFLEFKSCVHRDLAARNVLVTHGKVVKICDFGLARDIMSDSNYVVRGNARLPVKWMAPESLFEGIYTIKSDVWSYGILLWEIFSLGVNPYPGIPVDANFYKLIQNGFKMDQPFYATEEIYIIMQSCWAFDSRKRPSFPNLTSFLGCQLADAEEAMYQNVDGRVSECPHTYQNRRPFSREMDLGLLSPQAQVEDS
In short: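 Murine BA/F3 cells transfected with full-length FLT3 carrying ITD plus D835Y or F691L, grown without IL-3 so growth depends on FLT3. Seeded at 1×10^4 cells/well and dosed with 8 points, 10 to 0.0046 μM, 0.2% DMSO, for three days at 37 °C. IC50 from CellTiter-Glo luminescence (ATP content).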

Row | GI50 [µM] | SMILES
1 | 0.0001 to 1 | O=S(=O)(c1cccc(-c2cnc3[nH]cc(-c4ccc5ncn(C6CCCNC6)c5c4)c3c2)c1)N1CCCC1 (centres unmarked) [P-222, 1-(3-piperidyl)-6-[5-(3-pyrrolidin-1-ylsulfonylphenyl)-1H-pyrrolo[2,3-b]pyridin-3-yl]benzimidazole]
2 | 1 to 10 | FC(F)(F)Oc1cccc(C#Cc2cnc3[nH]cc(-c4ccc5ncn(C6CCCNC6)c5c4)c3n2)c1 (centres unmarked) [P-246, 7-[3-(3-piperidyl)benzimidazol-5-yl]-2-[2-[3-(trifluoromethoxy)phenyl]ethynyl]-5H-pyrrolo[2,3-b]pyrazine]
3 | 0.0001 to 1 | O=S1(=O)CCCCN1c1cccc(-c2cnc3[nH]cc(-c4ccc5ncn(C6CCCNC6)c5c4)c3n2)c1 (centres unmarked) [P-253, 2-[3-[7-[3-(3-piperidyl)benzimidazol-5-yl]-5H-pyrrolo[2,3-b]pyrazin-2-yl]phenyl]thiazinane 1,1-dioxide]
4 | 0.0001 to 1 | CC(C)(C)n1cnc2ccc(-c3c[nH]c4ncc(-c5ccnc(N6CCOCC6)c5)nc34)cc21 [P-228, 4-[4-[7-(3-tert-butylbenzimidazol-5-yl)-5H-pyrrolo[2,3-b]pyrazin-2-yl]-2-pyridyl]morpholine]
5 | 0.0001 to 1 | N#Cc1cccc(C#Cc2cnc3[nH]cc(-c4ccc5ncn(C6CCCNC6)c5c4)c3c2)c1 (centres unmarked) [P-243, 3-[2-[3-[3-(3-piperidyl)benzimidazol-5-yl]-1H-pyrrolo[2,3-b]pyridin-5-yl]ethynyl]benzonitrile]
6 | 0.0001 to 1 | CN(c1cccc(-c2cnc3[nH]cc(-c4ccc5ncn(C)c5c4)c3c2)c1)S(C)(=O)=O [P-120, N-methyl-N-[3-[3-(3-methylbenzimidazol-5-yl)-1H-pyrrolo[2,3-b]pyridin-5-yl]phenyl]methanesulfonamide]
7 | 0.0001 to 1 | FC(F)n1cc(-c2cnc3[nH]cc(-c4ccc5ncn(C6CCCNC6)c5c4)c3n2)cn1 (centres unmarked) [P-257, 2-[1-(difluoromethyl)pyrazol-4-yl]-7-[3-(3-piperidyl)benzimidazol-5-yl]-5H-pyrrolo[2,3-b]pyrazine]
8 | 0.0001 to 1 | N#Cc1cc(-c2cnc3[nH]cc(-c4ccc5ncn(C6CCCNC6)c5c4)c3n2)ccc1F (centres unmarked) [P-238, 2-fluoro-5-[7-[3-(3-piperidyl)benzimidazol-5-yl]-5H-pyrrolo[2,3-b]pyrazin-2-yl]benzonitrile]
9 | 0.0001 to 1 | N#Cc1cc(-c2cnc3[nH]cc(-c4ccc5ncn(C6CCCNC6)c5c4)c3c2)ccc1F (centres unmarked) [P-208, 2-fluoro-5-[3-[3-(3-piperidyl)benzimidazol-5-yl]-1H-pyrrolo[2,3-b]pyridin-5-yl]benzonitrile]
10 | 0.0001 to 1 | COc1cc(-c2cnc3[nH]nc(-c4ccc5ncn(C(C)(C)C)c5c4)c3c2)ccn1 [P-272, 3-(1-(tert-butyl)-1H-benzo[d]imidazol-6-yl)-5-(2-methoxypyridin-4-yl)-1H-pyrazolo[3,4-b]pyridine]
11 | 0.0001 to 1 | CCCS(=O)(=O)Nc1cccc(-c2cnc3[nH]cc(-c4ccc5ncn(C(C)(C)C)c5c4)c3c2)c1 [P-216, N-[3-[3-(3-tert-butylbenzimidazol-5-yl)-1H-pyrrolo[2,3-b]pyridin-5-yl]phenyl]propane-1-sulfonamide]
12 | 0.0001 to 1 | CC(C)(C)n1cnc2ccc(-c3c[nH]c4ncc(-c5cccc(N6CCOCC6)c5)nc34)cc21 [P-226, 4-[3-[7-(3-tert-butylbenzimidazol-5-yl)-5H-pyrrolo[2,3-b]pyrazin-2-yl]phenyl]morpholine]
13 | 0.0001 to 1 | CCCS(=O)(=O)Nc1cccc(-c2cnc3[nH]cc(-c4ccc5ncn(C(C)(C)C)c5c4)c3n2)c1 [P-225, N-[3-[7-(3-tert-butylbenzimidazol-5-yl)-5H-pyrrolo[2,3-b]pyrazin-2-yl]phenyl]propane-1-sulfonamide]
14 | 0.0001 to 1 | COc1ncc(-c2cnc3[nH]cc(-c4ccc5ncn(C(C)(C)C)c5c4)c3c2)cn1 [P-265, 1-(tert-butyl)-6-(5-(2-methoxypyrimidin-5-yl)-1H-pyrrolo[2,3-b]pyridin-3-yl)-1H-benzo[d]imidazole]
15 | 0.0001 to 1 | CCCS(=O)(=O)Nc1cccc(-c2cnc3[nH]cc(-c4ccc5ncn(C6CCCNC6)c5c4)c3c2)c1 (centres unmarked) [P-217, N-[3-[3-[3-(3-piperidyl)benzimidazol-5-yl]-1H-pyrrolo[2,3-b]pyridin-5-yl]phenyl]propane-1-sulfonamide]
16 | 0.0001 to 1 | CC(C)n1cnc2ccc(-c3c[nH]c4ncc(-c5cnn(CC(F)(F)F)c5)cc34)cc21 [P-268, 1-isopropyl-6-[5-[1-(2,2,2-trifluoroethyl)pyrazol-4-yl]-1H-pyrrolo[2,3-b]pyridin-3-yl]benzimidazole]
17 | 0.0001 to 1 | COc1cc(C#Cc2cnc3[nH]cc(-c4ccc5ncn(C6CCCNC6)c5c4)c3c2)ccn1 (centres unmarked) [P-241, 5-[2-(2-methoxy-4-pyridyl)ethynyl]-3-[3-(3-piperidyl)benzimidazol-5-yl]-1H-pyrrolo[2,3-b]pyridine]
18 | 0.0001 to 1 | CC(C)(C)n1cnc2ccc(-c3c[nH]c4ncc(-c5ccc(N6CCOCC6)cc5)nc34)cc21 [P-100, 4-[4-[7-(3-tert-butylbenzimidazol-5-yl)-5H-pyrrolo[2,3-b]pyrazin-2-yl]phenyl]morpholine]
19 | 0.0001 to 1 | CC(C)n1cnc2ccc(-c3c[nH]c4ncc(-c5cnn(C(F)F)c5)cc34)cc21 [P-267, 5-[1-(difluoromethyl)pyrazol-4-yl]-3-(3-isopropylbenzimidazol-5-yl)-1H-pyrrolo[2,3-b]pyridine]
20 | 0.0001 to 1 | COc1cc(-c2cnc3[nH]cc(-c4ccc5ncn(C6CCCNC6)c5c4)c3n2)cc(OC)n1 (centres unmarked) [P-195, 2-(2,6-dimethoxy-4-pyridyl)-7-[3-(3-piperidyl)benzimidazol-5-yl]-5H-pyrrolo[2,3-b]pyrazine]
21 | 0.0001 to 1 | CC(C)S(=O)(=O)Nc1cccc(-c2cnc3[nH]cc(-c4ccc5ncn(C(C)(C)C)c5c4)c3n2)c1 [P-232, N-[3-[7-(3-tert-butylbenzimidazol-5-yl)-5H-pyrrolo[2,3-b]pyrazin-2-yl]phenyl]propane-2-sulfonamide]
22 | 0.0001 to 1 | COc1ncccc1C#Cc1cnc2[nH]cc(-c3ccc4ncn(C(C)(C)C)c4c3)c2n1 [P-250, 7-(3-tert-butylbenzimidazol-5-yl)-2-[2-(2-methoxy-3-pyridyl)ethynyl]-5H-pyrrolo[2,3-b]pyrazine]
23 | 0.0001 to 1 | COc1cc(-c2cnc3[nH]cc(-c4ccc5ncn(C(C)(C)CO)c5c4)c3n2)ccn1 [P-186, 2-[6-[2-(2-methoxy-4-pyridyl)-5H-pyrrolo[2,3-b]pyrazin-7-yl]benzimidazol-1-yl]-2-methyl-propan-1-ol]
